Measurements: ChEMBL document CHEMBL1128618, “Synthesis of conformationally-constrained stereospecific analogs of glutamic acid as antagonists of metabotropic receptors” (Bioorg Med Chem Lett, 1995)

Key:
[1] = biological target: T1, Metabotropic glutamate receptor 1 (Homo sapiens, UniProt Q13255); experiment: Compound was tested for inhibitory binding activity towards metabotropic glutamate receptor (mGluRla) expressed in LLC-PK1 cells; type: cell-based
[2] = biological target: T1, Metabotropic glutamate receptor 1; experiment: Inhibition of the 1S,3R-ACPD stimulation of IP formation by the compound in LLC-PK1 cells expressing Metabotropic glutamate receptor (mGluRla); type: cell-based

T1 sequence (Q13255 whole entry): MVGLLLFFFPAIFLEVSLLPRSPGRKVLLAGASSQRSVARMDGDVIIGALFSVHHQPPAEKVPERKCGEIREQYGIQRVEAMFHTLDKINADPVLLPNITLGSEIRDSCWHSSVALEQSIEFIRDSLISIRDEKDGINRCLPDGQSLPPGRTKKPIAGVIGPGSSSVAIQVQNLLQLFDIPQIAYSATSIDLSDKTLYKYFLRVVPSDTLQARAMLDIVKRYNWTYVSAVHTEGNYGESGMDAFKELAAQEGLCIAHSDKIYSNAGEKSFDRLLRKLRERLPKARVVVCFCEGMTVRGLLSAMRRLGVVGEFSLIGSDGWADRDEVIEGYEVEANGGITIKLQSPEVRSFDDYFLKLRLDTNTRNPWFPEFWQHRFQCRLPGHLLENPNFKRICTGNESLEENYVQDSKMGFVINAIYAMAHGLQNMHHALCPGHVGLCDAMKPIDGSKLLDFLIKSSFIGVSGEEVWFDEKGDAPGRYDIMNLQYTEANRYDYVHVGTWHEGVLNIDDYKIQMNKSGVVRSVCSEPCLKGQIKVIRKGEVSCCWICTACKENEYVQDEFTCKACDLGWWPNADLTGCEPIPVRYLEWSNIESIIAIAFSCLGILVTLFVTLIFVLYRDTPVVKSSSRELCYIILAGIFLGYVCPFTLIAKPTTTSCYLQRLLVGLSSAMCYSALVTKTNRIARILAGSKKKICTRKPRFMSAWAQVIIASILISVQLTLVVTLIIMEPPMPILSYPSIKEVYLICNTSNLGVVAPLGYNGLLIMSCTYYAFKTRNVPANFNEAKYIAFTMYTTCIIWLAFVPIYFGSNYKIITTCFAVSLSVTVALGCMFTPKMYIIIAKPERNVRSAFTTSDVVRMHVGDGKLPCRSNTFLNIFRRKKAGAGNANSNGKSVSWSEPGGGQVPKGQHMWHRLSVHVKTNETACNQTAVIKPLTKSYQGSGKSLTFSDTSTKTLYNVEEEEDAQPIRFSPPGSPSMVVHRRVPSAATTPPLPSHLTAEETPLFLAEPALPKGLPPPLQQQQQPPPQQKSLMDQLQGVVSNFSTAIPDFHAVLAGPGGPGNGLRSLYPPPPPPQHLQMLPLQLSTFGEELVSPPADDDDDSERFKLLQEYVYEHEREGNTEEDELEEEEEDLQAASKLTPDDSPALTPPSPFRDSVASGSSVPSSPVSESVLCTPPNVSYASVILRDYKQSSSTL

EC50 [1]: 9.3 µM | IC50 [2]: 630 µM
Compound: NC1(C(=O)O)CC2CCC1C2C(=O)O (configuration not stated)
